Counter-ions that a name gives are not always drawn.
These compounds were tested on hPSC-SCs. Settings: not given.
CN1CCc2cc3c(cc2[C@H]1[C@@H]1OC(=O)c2c1ccc1c2OCO1)OCO3 [Bicuculline (+)] showed a z.score.t of 0.5437. COc1cc2c(cc1O)C[C@H]1c3c(cc(O)c(OC)c3-2)CCN1C [Boldine] was tested, and the z.score.t was 0.767. CCCCOC(=O)c1ccc(O)cc1 [Butylparaben] gave a z.score.t of −0.2359. CN1CC[C@]23c4ccccc4N[C@H]1[C@]21CCN(C)[C@H]3Nc2ccccc21 [Calycanthine] showed a z.score.t of 0.4849. Work on NC(N)=NOCC[C@H](N)C(=O)O.O.O=S(=O)(O)O [Canavanine sulfate monohydrate (L, +)] yielded a z.score.t of 1.095. Work on C[C@@]12C(=O)OC(=O)[C@]1(C)[C@H]1CC[C@@H]2O1 [Cantharidin] yielded a z.score.t of −2.175. CCCC(C)(COC(N)=O)COC(=O)NC(C)C (stereo not shown) [Carisoprodol] was tested, and the z.score.t was 0.425. Work on CCC1=C[C@@H]2CN3CCc4c([nH]c5ccccc45)[C@@](C(=O)OC)(C2)[C@@H]13 [Catharanthine] yielded a z.score.t of 0.2625. CC(=O)OCC1=C(C(=O)O)N2C(=O)[C@@H](N)[C@H]2SC1 [Cephalosporanic acid, 7-amino] showed a z.score.t of −0.7049. With O=C(O)CCCc1ccc(N(CCCl)CCCl)cc1 [Chlorambucil] the z.score.t was −1.263.

Same assay, conditions: HTS viability of hPSC-SCs in the presence of 30 mM glucose; Prestwick library; Table S4
NCCc1cc[nH]n1 [Betazole hydrochloride] was tested, and the z.score.t was 1.681. CC(C[N+](C)(C)C)OC(N)=O (stereo not shown) [Bethanechol chloride] showed a z.score.t of 0.3236. C[N+]1(C)C[C@H](O)C[C@H]1C(=O)[O-] [Betonicine] was tested, and the z.score.t was 1.194. C=C(C)[C@@H]1CC[C@]2(CO)CC[C@]3(C)[C@H](CC[C@@H]4[C@@]5(C)CC[C@H](O)C(C)(C)[C@@H]5CC[C@]43C)[C@@H]12 [Betulin] gave a z.score.t of −1.025. In the case of C=C(C)[C@@H]1CC[C@]2(C(=O)O)CC[C@]3(C)[C@H](CC[C@@H]4[C@@]5(C)CC[C@H](O)C(C)(C)[C@@H]5CC[C@]43C)[C@@H]12 [Betulinic acid], the z.score.t is reported as −1.832. CC(C)(Oc1ccc(CCNC(=O)c2ccc(Cl)cc2)cc1)C(=O)O [Bezafibrate] gave a z.score.t of 1.266. O=C(O)CCCC[C@@H]1SC[C@@H]2NC(=O)N[C@@H]21 [Biotin] gave a z.score.t of 0.2189. Work on OC(CCN1CCCCC1)(c1ccccc1)C1CC2C=CC1C2 (stereo not shown) [Biperiden hydrochloride] yielded a z.score.t of 0.04918. With CC(=O)Oc1ccc(C(c2ccc(OC(C)=O)cc2)c2ccccn2)cc1 [Bisacodyl] the z.score.t was 0.4849. For CC(C)NCC(O)COc1ccc(COCCOC(C)C)cc1 (stereo not shown) [Bisoprolol fumarate], the z.score.t was −0.1003. CC[N+](C)(C)Cc1ccccc1Br [Bretylium tosylate] was tested, and the z.score.t was −0.3895. CCN[C@H]1CN(CCCOC)S(=O)(=O)c2sc(S(N)(=O)=O)cc21 [Brinzolamide] was tested, and the z.score.t was 0.7491. With CCN(CC)CCNC(=O)c1cc(Br)c(N)cc1OC [Bromopride] the z.score.t was −0.3895. Compound O=C(CCCN1CCC(O)(c2ccc(Br)cc2)CC1)c1ccc(F)cc1 [Bromperidol] has a z.score.t of 1.239. CN(C)CCC(c1ccc(Br)cc1)c1ccccn1 (stereo not shown) [Brompheniramine maleate] showed a z.score.t of −0.8478. In the case of CCCC(=O)Nc1ncnc2c1ncn2[C@@H]1O[C@@H]2COP(=O)(O)O[C@H]2[C@H]1OC(=O)CCC [Bucladesine sodium salt], the z.score.t is reported as 0.7727. For CCCC1O[C@@H]2C[C@H]3[C@@H]4CCC5=CC(=O)C=C[C@]5(C)[C@H]4[C@@H](O)C[C@]3(C)[C@]2(C(=O)CO)O1 (stereo partly shown) [Budesonide], the z.score.t was 1.74. With CCCCOc1ccc(CC(=O)NO)cc1 [Bufexamac] the z.score.t was −0.6623. Work on COc1cc(OC)c(C(=O)CCCN2CCCC2)c(OC)c1 [Buflomedil hydrochloride] yielded a z.score.t of 0.3641. CCCCNc1cc(C(=O)O)cc(S(N)(=O)=O)c1Oc1ccccc1 [Bumetanide] showed a z.score.t of 1.181. With CCCCN1CCCCC1C(=O)Nc1c(C)cccc1C (stereo not shown) [Bupivacaine hydrochloride] the z.score.t was −0.3156. For CC(NC(C)(C)C)C(=O)c1cccc(Cl)c1 (stereo not shown) [Bupropion hydrochloride], the z.score.t was 2.803. CCCCN(CCCC)CCCOC(=O)c1ccc(N)cc1 [Butacaine] showed a z.score.t of −0.3023. With CCCCOC(=O)c1ccc(N)cc1 [Butamben] the z.score.t was 0.8465. In the case of Clc1ccc(CCC(Cn2ccnc2)Sc2c(Cl)cccc2Cl)cc1 (stereo not shown) [Butoconazole nitrate], the z.score.t is reported as −1.151. Compound O=C(O)/C=C/c1ccc(O)c(O)c1 [Caffeic acid] has a z.score.t of 0.9865. C=C1CC[C@H](O)C/C1=C/C=C1\CCC[C@]2(C)[C@@H]([C@H](C)/C=C/[C@H](C)C(C)C)CC[C@@H]12 [Calciferol] showed a z.score.t of 0.4451. With CC[C@@]1(O)C(=O)OCc2c1cc1n(c2=O)Cc2cc3ccccc3nc2-1 [Camptothecine (S, +)] the z.score.t was −1.163. For C[C@]12CCC(=O)C=C1C=C[C@@H]1[C@@H]2CC[C@@]2(C)[C@H]1CC[C@@]2(O)CCC(=O)O [Canrenoic acid potassium salt], the z.score.t was 0.05523. COc1cc(CNC(=O)CCCC/C=C/C(C)C)ccc1O [Capsaicin] was tested, and the z.score.t was 0.03421. With C[C@H](CS)C(=O)N1CCC[C@H]1C(=O)O [Captopril] the z.score.t was 2.207. C[N+](C)(C)CCOC(N)=O [Carbachol] showed a z.score.t of −0.1239. Work on NC(=O)N1c2ccccc2C=Cc2ccccc21 [Carbamazepine] yielded a z.score.t of 0.8158. CC1(C)[C@@H](OC(=O)CCC(=O)O)CC[C@]2(C)[C@H]3C(=O)C=C4[C@@H]5C[C@@](C)(C(=O)O)CC[C@]5(C)CC[C@@]4(C)[C@]3(C)CC[C@@H]12 [Carbenoxolone disodium salt] was tested, and the z.score.t was 1.163. Compound CCN(CC)CCOCCOC(=O)C1(c2ccccc2)CCCC1 [Carbetapentane citrate] has a z.score.t of 0.3024. CCOC(=O)n1ccn(C)c1=S [Carbimazole] was tested, and the z.score.t was −0.2276. With NCCC(=O)NCCc1c[nH]cn1 [Carcinine] the z.score.t was 0.8711. Work on CC(C)(C)NCC(O)COc1cccc2c1CCC(=O)N2 (stereo not shown) [Carteolol hydrochloride] yielded a z.score.t of 1.266. Work on N[C@@H](C(=O)N[C@@H]1C(=O)N2C(C(=O)O)=C(Cl)CS[C@H]12)c1ccccc1 [Cefaclor] yielded a z.score.t of −0.7233. For CC1=C(C(=O)O)N2C(=O)[C@@H](NC(=O)[C@H](N)c3ccc(O)cc3)[C@H]2SC1 [Cefadroxil], the z.score.t was 0.5046. NC(=O)c1cc[n+](CC2=C(C(=O)[O-])N3C(=O)[C@@H](NC(=O)Cc4cccs4)[C@H]3SC2)cc1 [Cefalonium] was tested, and the z.score.t was −0.3867. In the case of Cn1nnnc1SCC1=C(C(=O)O)N2C(=O)[C@@H](NC(=O)[C@H](O)c3ccccc3)[C@H]2SC1 [Cefamandole sodium salt], the z.score.t is reported as −0.7376. Cc1nnc(SCC2=C(C(=O)O)N3C(=O)[C@@H](NC(=O)Cn4cnnn4)[C@H]3SC2)s1 [Cefazolin sodium salt] gave a z.score.t of −0.6194. CO/N=C(\C(=O)N[C@@H]1C(=O)N2C(C(=O)O)=C(C[N+]3(C)CCCC3)CS[C@H]12)c1csc(N)n1 [Cefepime hydrochloride] was tested, and the z.score.t was −0.9926. C=CC1=C(C(=O)O)N2C(=O)[C@@H](NC(=O)/C(=N\OCC(=O)O)c3csc(N)n3)[C@H]2SC1 [Cefixime] showed a z.score.t of 0.5046. CO[C@@]1(NC(=O)CSCC#N)C(=O)N2C(C(=O)O)=C(CSc3nnnn3C)CS[C@@H]21 [Cefmetazole sodium salt] was tested, and the z.score.t was 0.1916. Compound CCN1CCN(C(=O)N[C@@H](C(=O)N[C@@H]2C(=O)N3C(C(=O)O)=C(CSc4nnnn4C)CS[C@H]23)c2ccc(O)cc2)C(=O)C1=O [Cefoperazone dihydrate] has a z.score.t of −0.7233. Work on NCc1ccccc1CC(=O)N[C@@H]1C(=O)N2C(C(=O)O)=C(CSc3nnnn3CC(=O)O)CS[C@H]12 [Ceforanide] yielded a z.score.t of −0.5532. In the case of CO/N=C(\C(=O)N[C@@H]1C(=O)N2C(C(=O)O)=C(COC(C)=O)CS[C@H]12)c1csc(N)n1 [Cefotaxime sodium salt], the z.score.t is reported as 1.931. In the case of CO[C@@]1(NC(=O)C2SC(=C(C(N)=O)C(=O)O)S2)C(=O)N2C(C(=O)O)=C(CSc3nnnn3C)CS[C@@H]21 (stereo partly shown) [Cefotetan], the z.score.t is reported as −0.4942. In the case of CN(C)CCn1nnnc1SCC1=C(C(=O)O)N2C(=O)[C@@H](NC(=O)Cc3csc(N)n3)[C@H]2SC1 [Cefotiam hydrochloride], the z.score.t is reported as −1.122. In the case of CO[C@@]1(NC(=O)Cc2cccs2)C(=O)N2C(C(=O)O)=C(COC(N)=O)CS[C@@H]21 [Cefoxitin sodium salt], the z.score.t is reported as 0.6964. NC(=O)c1cc[n+](CC2=C(C(=O)O)N3C(=O)[C@@H](NC(=O)[C@@H](c4ccccc4)S(=O)(=O)[O-])[C@H]3SC2)cc1 [Cefsulodin sodium salt] showed a z.score.t of −0.03362. Work on CC(C)(O/N=C(\C(=O)N[C@@H]1C(=O)N2C(C(=O)[O-])=C(C[n+]3ccccc3)CS[C@H]12)c1csc(N)n1)C(=O)O [Ceftazidime pentahydrate] yielded a z.score.t of 0.563. Compound CO/N=C(\C(=O)N[C@@H]1C(=O)N2C(C(=O)O)=C(COC(N)=O)CS[C@H]12)c1ccco1 [Cefuroxime sodium salt] has a z.score.t of −0.8132. CC1=C(C(=O)O)N2C(=O)[C@@H](NC(=O)[C@H](N)c3ccccc3)[C@H]2SC1 [Cephalexin monohydrate] showed a z.score.t of 1.08. Work on CC(=O)OCC1=C(C(=O)O)N2C(=O)[C@@H](NC(=O)Cc3cccs3)[C@H]2SC1 [Cephalothin sodium salt] yielded a z.score.t of −1.359. For O=C(O)COCCN1CCN(C(c2ccccc2)c2ccc(Cl)cc2)CC1 (stereo not shown) [Cetirizine dihydrochloride], the z.score.t was −0.3112. In the case of C[C@H](CCC(=O)O)[C@H]1CC[C@H]2[C@@H]3[C@H](O)C[C@@H]4C[C@H](O)CC[C@]4(C)[C@H]3CC[C@]12C [Chenodiol], the z.score.t is reported as 1.481. Work on COc1cc(-c2ccc(N=Nc3ccc4c(S(=O)(=O)[O-])cc(S(=O)(=O)[O-])c(N)c4c3O)c(OC)c2)ccc1N=Nc1ccc2c(S(=O)(=O)[O-])cc(S(=O)(=O)[O-])c(N)c2c1O.[Na+].[Na+].[Na+].[Na+] [Chicago sky blue 6B] yielded a z.score.t of 0.6578. In the case of O=C(N[C@H](CO)[C@H](O)c1ccc([N+](=O)[O-])cc1)C(Cl)Cl [Chloramphenicol], the z.score.t is reported as 1.278. Compound CN1CCN(C(c2ccccc2)c2ccc(Cl)cc2)CC1 (stereo not shown) [Chlorcyclizine hydrochloride] has a z.score.t of −1.754. With [H]/N=C(\N/C(=N/[H])NCCCCCCNC(=N)NC(=N)Nc1ccc(Cl)cc1)Nc1ccc(Cl)cc1 [Chlorhexidine] the z.score.t was 1.056.

— US20260053861A1, “CELL COMPOSITIONS AND METHODS OF USING THE SAME” (THE REGENTS OF THE UNIVERSITY OF CALIFORNIA, priority 2022, published 2026)
